From EP3154958B1, “PHOSPHATIDYLINOSITOL 3-KINASE INHIBITORS” (Gilead Sciences, Inc., priority 2014, dated 2015)
Where two headings read alike, the source gives them in different places.

Legend:
Assay type in all cases: biochemical
PI3Kβ = molecular target: T1, PI3Kβ (Homo sapiens, UniProt P42338); experiment: TR-FRET enzymatic activity assay, PI3Kβ
T1 construct: made in house
Protocol: (§1) The compounds of formula (I) were characterized for their enzymatic activity against the PI3K isoforms. The activities were measured using a time-resolved fluorescence resonance energy transfer (TR-FRET) assay.

PI3Kδ = molecular target: T2, PI3Kδ (Homo sapiens, UniProt O00329); experiment: TR-FRET enzymatic activity assay, PI3Kδ
T2 construct: made in house
Protocol: as §1

PI3Kγ = molecular target: T3, PI3Kγ (Homo sapiens, UniProt P48736); experiment: TR-FRET enzymatic activity assay, PI3Kγ
T3 construct: made in house
Protocol: as §1

[1] = recombinant heterodimeric PI3Kβ 25-50 pM, 2× Km ATP, 30 minutes at 25°C
[2] = recombinant heterodimeric PI3Kδ 25-50 pM, 2× Km ATP, 30 minutes at 25°C
[3] = recombinant heterodimeric PI3Kγ 2 nM, 2× Km ATP, 30 minutes at 25°C

T1 sequence (P42338 whole entry): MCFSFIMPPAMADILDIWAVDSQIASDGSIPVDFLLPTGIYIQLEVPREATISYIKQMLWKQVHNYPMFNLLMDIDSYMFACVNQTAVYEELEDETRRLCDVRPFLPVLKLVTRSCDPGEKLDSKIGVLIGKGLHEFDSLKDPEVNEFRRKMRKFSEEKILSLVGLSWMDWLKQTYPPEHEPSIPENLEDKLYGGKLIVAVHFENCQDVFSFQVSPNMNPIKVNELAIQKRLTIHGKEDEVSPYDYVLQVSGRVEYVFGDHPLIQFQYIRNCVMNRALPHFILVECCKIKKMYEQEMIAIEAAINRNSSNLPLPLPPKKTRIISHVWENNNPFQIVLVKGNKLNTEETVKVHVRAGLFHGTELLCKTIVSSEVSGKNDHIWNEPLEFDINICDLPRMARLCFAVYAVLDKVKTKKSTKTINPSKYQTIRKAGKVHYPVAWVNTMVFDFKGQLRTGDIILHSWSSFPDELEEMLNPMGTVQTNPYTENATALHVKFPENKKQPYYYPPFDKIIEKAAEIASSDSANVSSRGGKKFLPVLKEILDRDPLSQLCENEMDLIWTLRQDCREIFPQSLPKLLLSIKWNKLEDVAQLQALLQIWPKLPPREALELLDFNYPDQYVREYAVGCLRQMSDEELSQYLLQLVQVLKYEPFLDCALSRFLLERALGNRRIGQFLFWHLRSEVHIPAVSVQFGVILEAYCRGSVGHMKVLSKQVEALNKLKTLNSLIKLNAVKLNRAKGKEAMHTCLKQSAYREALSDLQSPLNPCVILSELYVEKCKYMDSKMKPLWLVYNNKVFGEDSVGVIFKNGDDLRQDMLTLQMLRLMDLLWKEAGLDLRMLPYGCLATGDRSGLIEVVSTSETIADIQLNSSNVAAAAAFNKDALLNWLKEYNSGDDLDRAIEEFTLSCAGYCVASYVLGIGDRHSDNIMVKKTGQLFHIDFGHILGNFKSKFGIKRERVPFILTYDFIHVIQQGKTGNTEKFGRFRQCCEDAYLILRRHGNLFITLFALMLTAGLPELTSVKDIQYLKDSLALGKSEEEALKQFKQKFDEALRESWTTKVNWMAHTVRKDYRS
T1 sequence (P27986 whole entry partner): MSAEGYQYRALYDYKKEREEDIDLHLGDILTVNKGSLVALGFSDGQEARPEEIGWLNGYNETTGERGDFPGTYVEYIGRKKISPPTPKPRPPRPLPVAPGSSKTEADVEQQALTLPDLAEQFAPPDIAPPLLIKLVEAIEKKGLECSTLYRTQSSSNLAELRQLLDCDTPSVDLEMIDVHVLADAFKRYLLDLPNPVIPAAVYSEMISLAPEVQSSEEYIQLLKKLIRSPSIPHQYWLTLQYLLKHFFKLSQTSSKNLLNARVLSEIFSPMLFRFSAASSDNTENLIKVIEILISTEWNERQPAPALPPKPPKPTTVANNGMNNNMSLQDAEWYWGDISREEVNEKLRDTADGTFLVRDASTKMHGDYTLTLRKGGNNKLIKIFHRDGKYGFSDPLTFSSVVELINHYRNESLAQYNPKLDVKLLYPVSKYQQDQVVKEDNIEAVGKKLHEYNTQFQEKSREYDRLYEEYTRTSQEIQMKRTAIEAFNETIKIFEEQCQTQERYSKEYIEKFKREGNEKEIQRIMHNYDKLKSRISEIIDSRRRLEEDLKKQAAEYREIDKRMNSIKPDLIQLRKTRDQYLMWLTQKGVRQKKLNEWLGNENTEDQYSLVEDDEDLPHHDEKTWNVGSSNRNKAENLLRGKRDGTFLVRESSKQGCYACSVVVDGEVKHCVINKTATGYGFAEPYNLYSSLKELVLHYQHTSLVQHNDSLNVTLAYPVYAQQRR
T3 sequence (P48736 whole entry): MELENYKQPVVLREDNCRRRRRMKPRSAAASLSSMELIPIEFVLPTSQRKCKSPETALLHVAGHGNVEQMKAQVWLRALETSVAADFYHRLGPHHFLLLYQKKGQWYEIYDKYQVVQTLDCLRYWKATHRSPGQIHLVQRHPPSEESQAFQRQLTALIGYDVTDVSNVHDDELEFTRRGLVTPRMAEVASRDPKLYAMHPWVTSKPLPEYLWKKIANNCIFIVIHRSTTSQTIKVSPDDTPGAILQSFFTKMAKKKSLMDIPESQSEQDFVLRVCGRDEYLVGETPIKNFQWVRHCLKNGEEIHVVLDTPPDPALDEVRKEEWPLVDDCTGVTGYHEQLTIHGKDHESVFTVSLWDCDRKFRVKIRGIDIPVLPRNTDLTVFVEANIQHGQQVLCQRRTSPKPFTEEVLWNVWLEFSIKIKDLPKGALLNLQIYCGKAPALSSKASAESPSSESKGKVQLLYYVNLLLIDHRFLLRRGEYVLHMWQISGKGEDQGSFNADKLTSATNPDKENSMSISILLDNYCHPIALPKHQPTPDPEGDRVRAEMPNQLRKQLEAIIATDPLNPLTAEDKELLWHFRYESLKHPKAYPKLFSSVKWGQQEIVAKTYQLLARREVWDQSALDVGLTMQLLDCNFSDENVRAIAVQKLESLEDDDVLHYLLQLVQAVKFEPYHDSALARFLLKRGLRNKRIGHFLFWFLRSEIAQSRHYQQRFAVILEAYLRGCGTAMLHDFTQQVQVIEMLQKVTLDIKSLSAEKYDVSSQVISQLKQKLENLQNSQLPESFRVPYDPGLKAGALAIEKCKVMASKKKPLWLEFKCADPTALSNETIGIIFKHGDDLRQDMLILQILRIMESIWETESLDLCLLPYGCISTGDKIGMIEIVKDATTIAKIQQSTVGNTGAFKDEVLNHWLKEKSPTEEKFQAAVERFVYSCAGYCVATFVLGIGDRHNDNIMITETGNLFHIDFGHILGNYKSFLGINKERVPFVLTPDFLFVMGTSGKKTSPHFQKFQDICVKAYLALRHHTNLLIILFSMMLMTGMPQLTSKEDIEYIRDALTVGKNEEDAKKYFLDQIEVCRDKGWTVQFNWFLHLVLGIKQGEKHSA
T3 sequence (Q8WYR1 whole entry partner): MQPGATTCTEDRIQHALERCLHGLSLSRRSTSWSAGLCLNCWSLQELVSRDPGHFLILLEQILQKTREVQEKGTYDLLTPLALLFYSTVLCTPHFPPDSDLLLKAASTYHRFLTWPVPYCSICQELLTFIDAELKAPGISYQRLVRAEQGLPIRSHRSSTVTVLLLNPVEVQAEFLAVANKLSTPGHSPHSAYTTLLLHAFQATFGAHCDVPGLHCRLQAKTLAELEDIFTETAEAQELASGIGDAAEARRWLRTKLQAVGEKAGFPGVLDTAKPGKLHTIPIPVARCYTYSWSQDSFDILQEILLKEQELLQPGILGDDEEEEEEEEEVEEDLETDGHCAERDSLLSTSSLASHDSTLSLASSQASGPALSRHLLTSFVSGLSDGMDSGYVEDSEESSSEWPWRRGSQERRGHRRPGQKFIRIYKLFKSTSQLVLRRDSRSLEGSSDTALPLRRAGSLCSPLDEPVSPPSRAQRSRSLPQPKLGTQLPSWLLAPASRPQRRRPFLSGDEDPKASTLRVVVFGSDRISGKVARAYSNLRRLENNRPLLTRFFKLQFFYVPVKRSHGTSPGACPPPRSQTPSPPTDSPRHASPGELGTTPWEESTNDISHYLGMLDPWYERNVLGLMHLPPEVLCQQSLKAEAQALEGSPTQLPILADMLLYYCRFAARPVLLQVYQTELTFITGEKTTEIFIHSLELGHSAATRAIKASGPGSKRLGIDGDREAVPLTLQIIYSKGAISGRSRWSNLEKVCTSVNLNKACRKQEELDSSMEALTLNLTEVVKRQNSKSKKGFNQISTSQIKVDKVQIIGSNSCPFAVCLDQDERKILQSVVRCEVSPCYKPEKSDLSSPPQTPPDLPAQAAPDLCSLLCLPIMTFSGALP
T2 sequence (O00329 whole entry): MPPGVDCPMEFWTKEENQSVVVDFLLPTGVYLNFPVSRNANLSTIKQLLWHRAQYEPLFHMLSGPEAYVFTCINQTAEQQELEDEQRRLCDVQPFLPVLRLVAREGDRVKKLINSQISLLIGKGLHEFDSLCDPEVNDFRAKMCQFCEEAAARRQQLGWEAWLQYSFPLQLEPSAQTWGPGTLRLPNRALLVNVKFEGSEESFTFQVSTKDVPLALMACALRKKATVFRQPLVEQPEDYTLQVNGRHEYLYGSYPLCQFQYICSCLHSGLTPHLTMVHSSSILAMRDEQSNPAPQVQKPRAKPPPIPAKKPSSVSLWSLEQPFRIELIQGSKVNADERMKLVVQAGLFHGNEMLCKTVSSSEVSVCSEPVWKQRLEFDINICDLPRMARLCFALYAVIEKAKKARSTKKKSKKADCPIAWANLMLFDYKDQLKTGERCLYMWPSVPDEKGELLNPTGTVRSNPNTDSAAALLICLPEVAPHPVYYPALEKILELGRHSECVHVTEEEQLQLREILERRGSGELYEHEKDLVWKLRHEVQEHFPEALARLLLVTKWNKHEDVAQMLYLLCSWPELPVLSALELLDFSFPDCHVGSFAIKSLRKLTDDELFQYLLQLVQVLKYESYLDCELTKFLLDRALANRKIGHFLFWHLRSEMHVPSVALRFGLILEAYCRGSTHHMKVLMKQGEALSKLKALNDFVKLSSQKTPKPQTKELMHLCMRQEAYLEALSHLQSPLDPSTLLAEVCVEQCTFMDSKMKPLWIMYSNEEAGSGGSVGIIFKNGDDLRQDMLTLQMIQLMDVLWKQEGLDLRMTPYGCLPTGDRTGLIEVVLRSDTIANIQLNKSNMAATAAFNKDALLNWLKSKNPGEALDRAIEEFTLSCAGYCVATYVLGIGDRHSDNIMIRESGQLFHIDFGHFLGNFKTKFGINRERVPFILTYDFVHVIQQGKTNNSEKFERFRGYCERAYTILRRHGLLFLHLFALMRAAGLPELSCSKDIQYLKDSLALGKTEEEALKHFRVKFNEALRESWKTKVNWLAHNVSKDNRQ
T2 sequence (P27986 whole entry partner): as the sequence (P27986 whole entry partner) above

Compound | IC50 (PI3Kβ; [1]) [nM] | IC50 (PI3Kδ; [2]) [nM] | IC50 (PI3Kγ; [3]) [nM] | IC50 (PI3Kβ) [nM] | IC50 (PI3Kδ) [nM] | IC50 (PI3Kγ) [nM]
C[C@H](Nc1ncnc(N)c1C#N)c1nc2cccc(Cl)c2c(=O)n1C1CCN(C)CC1 [Compound 6, (S)-4-amino-6-((1-(5-chloro-3-(1-methylpiperidin-4-yl)-4-oxo-3,4-dihydroquinazolin-2-yl)ethyl)amino)pyrimidine-5-carbonitrile] | 460 | 68 | > 10000 |  |  | 
C[C@H](Nc1nc(N)nc(N)c1Cl)c1nc2cccc(Cl)c2c(=O)n1C1CCN(CC(F)(F)F)CC1 [Compound 104, (S)-5-chloro-2-(1-((2,6-diamino-5-chloropyrimidin-4-yl)amino)ethyl)-3-(1-(2,2,2-trifluoroethyl)piperidin-4-yl)quinazolin-4(3H)-one] | 10000 | 260 | > 10000 |  |  | 
C[C@H](Nc1nc(N)nc(N)c1C#N)c1nc2c(Cl)cc(F)cc2c(=O)n1N1CCNCC1 [Compound 126, (S)-2,4-diamino-6-((1-(8-chloro-6-fluoro-4-oxo-3-(piperazin-1-yl)-3,4-dihydroquinazolin-2-yl)ethyl)amino)pyrimidine-5-carbonitrile] | 5 | 4 | 4900 |  |  | 
C[C@H](Nc1nc(N)nc(N)c1C#N)c1nc2c(F)ccc(F)c2c(=O)n1N1CCNCC1 [Compound 39, (S)-2,4-diamino-6-((1-(5,8-difluoro-4-oxo-3-(piperazin-1-yl)-3,4-dihydroquinazolin-2-yl)ethyl)amino)pyrimidine-5-carbonitrile] | 4 | 3 | 5400 |  |  | 
Cc1nc(N)nc(N[C@H](c2nc3cccc(Cl)c3c(=O)n2C2[C@H]3CNC[C@@H]23)C2CC2)c1C#N (stereo in doubt) [Compound 14, 4-(((1S)-(3-((1R,5S)-3-azabicyclo[3.1.0]hexan-6-yl)-5-chloro-4-oxo-3,4-dihydroquinazolin-2-yl)(cyclopropyl)methyl)amino)-2-amino-6-methylpyrimidine-5-carbonitrile] |  |  |  | 0.4 | 0.3 | 480
C[C@H](Nc1nc(N)nc(N)c1Cl)c1nc2cccc(Cl)c2c(=O)n1[C@H]1CCCNCC1 [Compound 12, 3-((S)-azepan-4-yl)-5-chloro-2-((S)-1-((2,6-diamino-5-chloropyrimidin-4-yl)amino)ethyl)quinazolin-4(3H)-one] | 660 | 56 | > 10000 |  |  | 
N#Cc1c(N)nc(N)nc1N[C@H](c1nc2c(Cl)ccc(Cl)c2c(=O)n1C1CCC1)C1CC1 [Compound 138, (S)-2,4-diamino-6-((cyclopropyl(5,8-dichloro-3-cyclobutyl-4-oxo-3,4-dihydroquinazolin-2-yl)methyl)amino)pyrimidine-5-carbonitrile] | 58 | 1 | 524 |  |  | 
C[C@H](Nc1ncnc2ccc(Cl)nc12)c1nc2c(Cl)ccc(Cl)c2c(=O)n1N1CCNCC1 [Compound 52, (S)-5,8-dichloro-2-(1-((6-chloropyrido[3,2-d]pyrimidin-4-yl)amino)ethyl)-3-(piperazinl-yl)quinazolin-4(3H)-one] |  |  |  | 8 | 3 | 3100
C[C@H](Nc1ncnc2scnc12)c1nc2c(F)ccc(Cl)c2c(=O)n1N1CCNCC1 [Compound 50, (S)-5-chloro-8-fluoro-3-(piperazin-1-yl)-2-(1-(thiazolo[5,4-d]pyrimidin-7-ylamino)ethyl)quinazolin-4(3H)-one] | 15 | 2 | > 10000 |  |  | 
C[C@H](Nc1ncnc2ccc(Cl)nc12)c1nc2cccc(Cl)c2c(=O)n1N1CCNCC1 [Compound 71, (S)-5-chloro-2-(1-((6-chloropyrido[3,2-d]pyrimidin-4-yl)amino)ethyl)-3-(piperazin-1-yl)quinazolin-4(3H)-one] | 3 | 2 | 3200 |  |  | 
C[C@H](NC(=O)c1nc(Cl)cnc1N)c1nc2cccc(Cl)c2c(=O)n1N1CCNCC1 [Compound 32, (S)-3-amino-6-chloro-N-(1-(5-chloro-4-oxo-3-(piperazin-1-yl)-3,4-dihydroquinazolin-2-yl)ethyl)pyrazine-2-carboxamide] | 32 | 150 | > 10000 |  |  | 

Other lines, results leading:

IC50 (PI3Kβ; [1]) [nM] | IC50 (PI3Kδ; [2]) [nM] | IC50 (PI3Kγ; [3]) [nM] | IC50 (PI3Kβ) [nM] | IC50 (PI3Kδ) [nM] | IC50 (PI3Kγ) [nM] | Compound
59 | 22 | 930 |  |  |  | CC[C@H](Nc1nc(N)nc(N)c1C#N)c1nc2cccc(Cl)c2c(=O)n1N1CCN(Cc2ccc(F)cc2)CC1 [Compound 91, (S)-2,4-diamino-6-((1-(5-chloro-3-(4-(4-fluorobenzyl)piperazin-1-yl)-4-oxo-3,4-dihydroquinazolin-2-yl)propyl)amino)pyrimidine-5-carbonitrile]
2 | 1 | 1800 |  |  |  | CC[C@H](Nc1nc(N)nc(C)c1C#N)c1nc2cccc(Cl)c2c(=O)n1N1CCNCC1 [Compound 44, (S)-2-amino-4-((1-(5-chloro-4-oxo-3-(piperazin-1-yl)-3,4-dihydroquinazolin-2-yl)propyl)amino)-6-methylpyrimidine-5-carbonitrile]
300 | 26 | 560 |  |  |  | Cc1nc(N)nc(N[C@@H](C)c2nc3cccc(Cl)c3c(=O)n2N2CCN(CC(F)F)CC2)c1C#N [Compound 114, (S)-2-amino-4-((1-(5-chloro-3-(4-(2,2-difluoroethyl)piperazin-1-yl)-4-oxo-3,4-dihydroquinazolin-2-yl)ethyl)amino)-6-methylpyrimidine-5-carbonitrile]
1 | 3 | 2100 |  |  |  | CC[C@H](Nc1nc(N)nc(N)c1C#N)c1nc2cccc(Cl)c2c(=O)n1N1CCNCC1 [Compound 68, (S)-2,4-diamino-6-((1-(5-chloro-4-oxo-3-(piperazin-1-yl)-3,4-dihydroquinazolin-2-yl)propyl)amino)pyrimidine-5-carbonitrile]
37 | 15 | > 10000 |  |  |  | CC(C)C[C@H](Nc1nc(N)nc(N)c1C#N)c1nc2cccc(Cl)c2c(=O)n1N1CCNCC1 [Compound 75, (S)-2,4-diamino-6-((1-(5-chloro-4-oxo-3-(piperazin-1-yl)-3,4-dihydroquinazolin-2-yl)-3-methylbutyl)amino)pyrimidine-5-carbonitrile]
150 | 0.9 | 400 |  |  |  | C[C@H](Nc1nc(N)nc(N)c1C#N)c1nc2cccc(Cl)c2c(=O)n1N1CCNC(C(F)(F)F)C1 (stereo partly drawn) [Compound 61, 2,4-diamino-6-(((1S)-1-(5-chloro-4-oxo-3-(3-(trifluoromethyl)piperazin-1-yl)-3,4-dihydroquinazolin-2-yl)ethyl)amino)pyrimidine-5-carbonitrile]
570 | 32 | > 10000 |  |  |  | CC(C)C[C@H](Nc1ncnc(N)c1C#N)c1nc2cccc(Cl)c2c(=O)n1N1CCNCC1 [Compound 74, (S)-4-amino-6-((1-(5-chloro-4-oxo-3-(piperazin-1-yl)-3,4-dihydroquinazolin-2-yl)-3-methylbutyl)amino)pyrimidine-5-carbonitrile]
8 | 12 | 580 |  |  |  | C[C@H](Nc1nc(N)nc(N)c1C#N)c1nc2cccc(Cl)c2c(=O)n1N1CCN(Cc2ccccc2)CC1 [Compound 3, (S)-2,4-diamino-6-((1-(3-(4-benzylpiperazin-1-yl)-5-chloro-4-oxo-3,4-dihydroquinazolin-2-yl)ethyl)amino)pyrimidine-5-carbonitrile]
14 | 1 | > 10000 |  |  |  | C[C@H](Nc1ncnc(N)c1C#N)c1nc2cccc(Cl)c2c(=O)n1N1CCNCC1 [Compound 55, (S)-4-amino-6-((1-(5-chloro-4-oxo-3-(piperazin-1-yl)-3,4-dihydroquinazolin-2-yl)ethyl)amino)pyrimidine-5-carbonitrile]
192 | 2 | 259 |  |  |  | C[C@H](Nc1nc(N)nc(N)c1C#N)c1nc2cccc(Cl)c2c(=O)n1[C@H]1CCOC1 [Compound 136, 2,4-diamino-6-(((S)-1-(5-chloro-4-oxo-3-((S)-tetrahydrofuran-3-yl)-3,4-dihydroquinazolin-2-yl)ethyl)amino)pyrimidine-5-carbonitrile]
22 | 2 | > 10000 |  |  |  | C[C@H](Nc1ncnc(N)c1C#N)c1nc2cccc(Cl)c2c(=O)n1N1CCCNCC1 [Compound 67, (S)-4-amino-6-((1-(5-chloro-3-(1,4-diazepan-1-yl)-4-oxo-3,4-dihydroquinazolin-2-yl)ethyl)amino)pyrimidine-5-carbonitrile]
120 | 4 | 5000 |  |  |  | C[C@H](Nc1nc(N)nc(N)c1C#N)c1nc2cccc(Cl)c2c(=O)n1N1CCC(N)CC1 [Compound 129, (S)-2,4-diamino-6-((1-(3-(4-aminopiperidin-1-yl)-5-chloro-4-oxo-3,4-dihydroquinazolin-2-yl)ethyl)amino)pyrimidine-5-carbonitrile]
5 | 2 | > 10000 |  |  |  | C[C@H](Nc1ncnc(N)c1C#N)c1nc2cccc(Cl)c2c(=O)n1N1CCNC2(CC2)C1 [Compound 63, (S)-4-amino-6-((1-(5-chloro-4-oxo-3-(4,7-diazaspiro[2.5]octan-7-yl)-3,4-dihydroquinazolin-2-yl)ethyl)amino)pyrimidine-5-carbonitrile]
4 | 2 | 1900 |  |  |  | C[C@H](Nc1nc(N)nc(N)c1C#N)c1nc2c(F)ccc(Cl)c2c(=O)n1N1CCNCC1 [Compound 54, (S)-2,4-diamino-6-((1-(5-chloro-8-fluoro-4-oxo-3-(piperazin-1-yl)-3,4-dihydroquinazolin-2-yl)ethyl)amino)pyrimidine-5-carbonitrile]
